According to patent publication US9408853B2, “Iridium/rhodium anti-cancer compounds” (University of Warwick, priority 2010, dated 2016):

What was measured:
[1] = system: human ovarian A2780 cancer cells; experiment: Cancer cell cytotoxicity, SRB assay; format: cell-based; settings: 24 h exposure, 72 h recovery, SRB; read-out: A2780 IC50
Method: Cancer Cell Cytotoxicity. After plating, human ovarian A2780 cancer cells were treated with Ir^III complexes on day 3 at concentrations ranging from 0.5 μM to 100 μM. Solutions of the Ir^III complexes were made up in 0.125% DMSO to assist dissolution. Stock solutions of the IrIII complexes were firstly prepared in DMSO to assist dissolution, and then diluted into 0.9% saline and medium. After plating 5000 A2780 cells per well on day 1, IrIII complexes were added to the cancer cells on day 3 at concentrations ranging from 0.05 μM to 100 μM. Cells were exposed to the complexes for 24 h, washed, supplied with fresh medium, allowed to grow for three doubling times (72 h), and then the protein content measured (proportional to cell survival) using the sulforhodamine B (SRB) assay.^15 […]. The standard errors are based on two independent experiments of three replicates each.

9-ethylguanine (9-EtG) = experiment: Interactions with nucleobases: 9-EtG adduct formation (1H NMR); format: binding; settings: 24 h; ca. 1.0 mM, 1 mol equiv 9-EtG, 20% MeOD-d4/80% D2O, 310 K
Method: Interactions with Nucleobases. The reaction of ZL01, ZL03, ZL04, ZL07, ZL25, ZL33, ZL37, ZL38, ZL43 and ZL54 and ZL33A with nucleobases typically involved addition of a solution containing 1-2 mol equiv of nucleobase in D2O, to an equilibrium solution of ZL01, ZL03, ZL04, ZL07, ZL25, ZL33, ZL37, ZL38, ZL43, ZL54 and ZL33A in a solution of 5% MeOD-d4/95% D2O (v/v). ^1H NMR spectra of these solutions were recorded at 310 K after various time intervals.
Since DNA is a potential target site for transition metal anticancer complexes,^18 nucleobase binding reactions of compounds ZL01, ZL03, ZL04, ZL07, ZL25, ZL33, ZL33A, ZL37, ZL38, ZL43 and ZL54 with nucleobase models 9-ethylguanine (9-EtG) and 9-ethyladenine (9-EtA), were investigated. Solutions of ZL01, ZL03, ZL04, ZL07, ZL25, ZL33, ZL37, ZL38, ZL43 and ZL54 (1 mM) (containing an equilibrium mixture of these complexes and their respective aqua adducts) with 1 mol equivalent of 9-EtG or 9-EtA in D2O were prepared, and ^1H NMR spectra were recorded at different time intervals.
Interactions with Nucleobases. Since DNA is a potential target site for transition metal anticancer complexes,^23 the binding of 9-ethylguanine (9-EtG) to complexes ZL47, ZL49, ZL69, ZL74 and ZL107 was studied.

[2] = Hydrolysis studies of C,N-chelated complexes and anation by NaCl (1H NMR); format: physicochemical; settings: 20% MeOD-d4/80% D2O; equilibrium reached within ~5 min even at 278 K
From the text: Hydrolysis Studies. The hydrolysis of complexes [(η^5-C5Me5)Ir(2-phpy)Cl] (ZL47), [(η^5-C5Me4C6H4C6H5)Ir(2-phpy)Cl] (ZL49), [(η^5-C5Me5) Ir(2-phq)Cl] (ZL68), [(η^5-C5Me5) Ir(tpy)Cl] (ZL69), [(η^5-C5Me5)Ir(2-dfphpy)Cl] (ZL74) and [(η^5-C5Me4C6H5)Ir(2-phpy) Cl] (ZL107) in 20% MeOD-d4/80% D2O (v/v) was monitored by ^1H NMR at different temperatures. The presence of methanol ensured the solubility of the complexes.

HT-29 cancer cell line = settings: cited from earlier work
MCF-7 cancer cell line = settings: cited from earlier work
[3] = system: A2780 human ovarian cancer cells; experiment: Cytotoxicity testing of rhodium complexes; format: cell-based
Method: Cytotoxicity testing in A2780 human ovarian cancer cells was performed by Dr Ana Maria Pizarro Arranz at the University of Warwick.

[4] = system: ca. 60 cell lines within nine tumour type subpanels; format: cell-based
From the text: (§1) Six complexes, [(η^5-C5Me4C6H4C6H5)Ir(bpy)Cl]PF6 (ZL25, bpy=2,2′-bipyridine), [(η^5-C5Me4C6H5)Ir(phen)Cl]PF6 (ZL33, phen=1,10-phenanthroline), [(η^5-C5Me4C6H4C6H5) Ir(pico)Cl] (ZL43, pico=picolinate), [(η^5-C5Me5)Ir(2-phpy)Cl] (ZL47), [(η^5-C5Me4C6H4C6H5)Ir(2-phPY)(D2O)Cl] (ZL49) and [(η^5-C5Me4C6H4C6H5) Ir(phen)Cl]PF6 (ZL54), were selected by Developmental Therapeutics Program of National Cancer Institute (NCI, U.S.A.) for in vitro screening test, in which 5 complexes except ZL43 are selected for further testing. The five complexes were tested on ca. 60 cell lines within nine tumour type subpanels at five concentrations ranging from 0.01 to 100 μM.

breast MDA-MB-468 = experiment: NCI screen, single cell line; format: cell-based
From the text: as §1

colon COLO 205 = experiment: NCI screen, single cell line; format: cell-based
From the text: as §1

melanoma SK-MEL-5 = experiment: NCI screen, single cell line; format: cell-based
From the text: as §1

[5] = system: human ovarian cancer cell line A2780cisR (cisplatin-resistant); settings: cited from earlier work
[6] = system: human ovarian cancer cell line A2780; settings: cited from earlier work

hydrolysis (in words) [2] | Compound | IC50 [1] [µM] | guanine adducts formed (9-ethylguanine (9-EtG)) [%] | in vitro cytotoxic activity towards MCF-7 (in words) (MCF-7 cancer cell line) | also measured
rapid hydrolysis | Cc1c(C)c(C)[c-](C)c1C.Cc1c[c-]c(-c2ccccn2)cc1.[Cl-].[Ir+3] [ZL69, [(η^5-C5Me5)Ir(tpy)Cl]] | 3.28 ± 0.14 | 100 | – | –
rapid hydrolysis | Cc1c(C)c(C)[c-](C)c1C.Fc1c[c-]c(-c2ccccn2)c(F)c1.[Cl-].[Ir+3] [ZL74, [(η^5-C5Me5)Ir(2-dfphpy)Cl]] | 6.53 ± 0.5 | 100 | – | –
rapid hydrolysis | Cc1c(C)c(C)[c-](C)c1C.[Cl-].[Ir+3].[c-]1ccccc1-c1ccc2ccccc2n1 [ZL68, [(η^5-C5Me5)Ir(2-phq)Cl]] | 2.55 ± 0.03 | – | – | –
– | CN(C)C(=S)N(C)C.Cc1c(C)c(C)[c-](C)c1C.O=S(=O)([O-])C(F)(F)F.O=S(=O)([O-])C(F)(F)F.[Ir+3].c1ccc2cc3nc4c5cccnc5c5ncccc5c4nc3cc2c1 [[(η^5-C5Me5)Ir((NMe2)2CS)(dppn)](CF3SO3)2] | – | – | possess in vitro cytotoxic activity | in vitro cytotoxic activity towards HT-29 (in words) (HT-29 cancer cell line): possess in vitro cytotoxic activity
– | [(Cp^xPh)Rh(2-Phenylbipyridyl)Cl]Cl [JS29] | – | – | – | relative activity against A2780 (in words) [3]: most active
– | Cc1c(C)c(C)[c-](C)c1C.NCCN.O=S(=O)([O-])C(F)(F)F.[Cl-].[Ir+3] [[(η^5-C5Me5) Ir(en)Cl](CF3SO3)] | – | – | inactive | –
– | [(Cp^xdiPh)Rh(2-phenylbipyridyl)Cl]Cl [JS39] | – | – | – | relative activity against A2780 (in words) [3]: most active
– | Cc1c(C)c(C)[c-](C)c1C.O=S(=O)([O-])C(F)(F)F.[Cl-].[Ir+3].c1ccc2nc3c4cccnc4c4ncccc4c3nc2c1 [[(η^5-C5Me5)IrCl(dppz)](CF3SO3)] | – | – | possess in vitro cytotoxic activity | in vitro cytotoxic activity towards HT-29 (in words) (HT-29 cancer cell line): possess in vitro cytotoxic activity
– | [(Cp*)Rh(2-phenylbipyridyl)Cl]Cl [JS36] | – | – | – | relative activity against A2780 (in words) [3]: most active
– | Cc1c(C)c(C)[c-](C)c1C.O=S(=O)([O-])C(F)(F)F.[Cl-].[Ir+3].c1cnc2c(c1)ccc1cccnc12 [[(η^5-C5Me5)Ir(phen)Cl](CF3SO3)] | – | – | inactive | –
– | Cc1c(C)c(C)[c-](C)c1C.[Cl-].[Ir+3].c1ccc(-c2nccs2)nc1 [[(η^5-C5Me5)Ir (pyTz)Cl]^+] | – | – | – | activity towards A2780cisR (in words) [5]: inactive; activity towards A2780 (in words) [6]: inactive

Compound | hydrolysis (in words) [2] | IC50 [1] [µM] | guanine adducts formed (9-ethylguanine (9-EtG)) [%] | in vitro cytotoxic activity towards MCF-7 (in words) (MCF-7 cancer cell line) | also measured
Cc1c(C)c(-c2ccccc2)[c-](C)c1C.[Cl-].[Ir+3].[c-]1ccccc1-c1ccccn1 (centres unmarked) [ZL107, [(η^5-C5Me4C6H5)(2-phpy)Cl]] | rapid hydrolysis | 2.14 ± 0.5 | 100 | – | –
Cc1c(C)c(C)[c-](-c2ccc(-c3ccccc3)cc2)c1C.[Cl-].[Ir+3].[c-]1ccccc1-c1ccccn1 [ZL49, [(η^5-C5Me4C6H4C6H5)Ir(2-phpy)Cl]] | rapid hydrolysis | 0.7 | 100 | – | CC50 [4]: 7.08 ± 1.05 µM; Mean graph midpoint (MID) TGI ([4]; ca. 60 cell lines, 0.01 to 100 μM): 2.19 ± 0.15 µM; GI50 ([4]; ca. 60 cell lines, 0.01 to 100 μM, read-out: Mean graph midpoint (MID) GI50): 0.71 ± 0.01 µM; selectivity among tumour type subpanels (in words) ([4]; mean graphs): selective for leukemia, colon cancer, and melanoma; GI50 (breast MDA-MB-468): < 0.2 µM; GI50 (colon COLO 205): < 0.2 µM; GI50 (melanoma SK-MEL-5): < 0.2 µM
